The text below walks through data of patent publication US20260108527A1, “POLO LIKE KINASE 4 INHIBITORS” (ORIC Pharmaceuticals, Inc., priority 2022, published 2026).

pIC50: −log10 of the molar value.

The subject of one assay is CHP134. Briefly: CHP134 CellTiter-Glo (CTG) Assay. The class given is cell-based. The settings on record: Homo sapiens, CHP-134, 120 h; viable cells by CellTiter-Glo after 5 days. As for the experimental part:
[…] cells (DSMZ-German Collection of Microorganisms and Cell Cultures, Braunschweig Germany) were cultured in RPMI 1640 supplemented with 10% fetal bovine serum, penicillin (100 U/ml), 1% L-Glutamine and streptomycin ([…]). Cells were seeded (200 cells/well) in 384-well plates for 16 hours. On day two, nine serial 1:3 compound dilutions were made in DMSO in a 96-well plate. The compounds were then further diluted into growth media using a BRAVO robot (Agilent, Santa Clara, CA). The diluted compounds were then added to quadruplicate wells in the 384-well cell plate and incubated at 37° C. and 5% CO2. After 5 days, relative numbers of viable cells were measured by luminescence using CellTiter-Glo® (Promega) according to the manufacturer's instructions and read on a SPARK Multimode Microplate Reader (Tecan, Mannedorf Switzerland). The IC50 calculations for the values reported in Table 2 were carried out using Prism 6.0 software (GraphPad, San Diego).

Assay [1] concerns the target T1, human recombinant Aurora A (Homo sapiens, UniProt O14965).
T1 construct: purchased ThermoFisher PR5935A
T1 sequence (O14965 1-403): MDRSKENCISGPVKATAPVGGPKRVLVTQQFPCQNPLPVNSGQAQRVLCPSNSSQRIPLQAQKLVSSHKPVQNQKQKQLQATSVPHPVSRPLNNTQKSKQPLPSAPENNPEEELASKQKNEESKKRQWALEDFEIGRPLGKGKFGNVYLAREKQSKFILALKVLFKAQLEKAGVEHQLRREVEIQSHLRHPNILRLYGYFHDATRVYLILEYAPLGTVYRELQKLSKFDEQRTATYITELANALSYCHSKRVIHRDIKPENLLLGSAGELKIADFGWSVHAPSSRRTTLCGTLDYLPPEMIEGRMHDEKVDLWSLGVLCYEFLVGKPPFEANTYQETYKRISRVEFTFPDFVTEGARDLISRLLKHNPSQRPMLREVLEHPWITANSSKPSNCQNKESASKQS
Briefly: Aurora A Kinase Biochemical Assay (ADP-Glo). As to conditions: selectivity ratio; Aurora A 2.5 nM, 20 μM ATP. The protocol:
Activity of human recombinant Aurora A (ThermoFisher, cat #PR5935A) was measured by quantification of adenosine diphosphate (ADP) using the ADP-Glo Kinase Assay Kit (Promega, cat #V9102). Test compounds were solubilized in dimethyl sulfoxide (DMSO) and dispensed into 384-well white polystyrene nonbinding plates (Greiner, cat #781094) using the Echo acoustic dispenser (Labcyte Inc.) in a 11-point 3-fold titration in duplicates. 5 μL of 5.0 nM Aurora A in assay buffer (50 mM HEPES, pH 7.5, 0.01% Brij-35, 0.01% BSA, 10 mM MgCl2, 1 mM EGTA, 1 mM DTT) was added to the plates. Test compounds and Aurora A were incubated for 15 minutes at room temperature (RT). Then 5 μL of a 40 μM adenosine triphosphate (ATP) (Promega, cat #V915B) and 9.3 μM Myelin Basic Protein (MBP) (SignalChem, cat #M42-51N) substrate solution in assay buffer was added and the reaction mixture was incubated for 2 hours at RT. The final concentration of Aurora A, ATP and MBP in the reactions were 2.5 nM, 20 μM and 4.7 μM, respectively. Reactions were stopped and the remaining ATP depleted by adding 10 μL of ADP-Glo reagent (Promega, cat #V912B) and incubating for 40 minutes at RT. The simultaneous conversion of the remaining ADP to ATP and measurement of the newly synthesized ATP was achieved by addition of 20 μL Kinase Detection reagent (Promega, cat #V914B), incubation for 30 min at RT, and luminescence detection using the EnVision plate reader (PerkinElmer). Reactions lacking Aurora A were used as 100% inhibition controls. Reactions containing DMSO alone were used as 0% inhibition controls. The IC50 values reported in Table 2 were determined using four parameter non-linear regression curve fit.

For the compound `COc1ccc2c(c1)[C@]1(C[C@H]1c1ccc3c(Nc4nc(-c5ncco5)cnc4OC)n[nH]c3c1)C(=O)N2` [Example 19, (1R,2S)-5′-methoxy-2-(3-{[3-methoxy-6-(1,3-oxazol-2-yl)pyrazin-2-yl]amino}-1H-indazol-6-yl)spiro[cyclopropane-1,3′-indol]-2′(1′H)-one], the pIC50 with CHP134 is 6.77. Further, the “[Aurora A IC50 (nM)]/[PLK4 IC50 (nM)]” value in assay [1] stood at 360.
The like results for `COc1ccc2c(c1)[C@]1(C[C@H]1c1ccc3c(Nc4nc(N(C)C)ncc4OC)n[nH]c3c1)C(=O)N2` [Example 20, (1R,2S)-2-(3-{[2-(dimethylamino)-5-methoxypyrimidin-4-yl]amino}-1H-indazol-6-yl)-5′-methoxyspiro[cyclopropane-1,3′-indol]-2′(1′H)-one] were, in that order, 6.36 and 170.
In the assay with CHP134, `COc1ccc2c(c1)[C@]1(C[C@H]1c1ccc3c(Nc4cc(-c5nnn(C)n5)ccc4OC)n[nH]c3c1)C(=O)N2` [Example 21, (1R,2S)-5′-methoxy-2-{3-[2-methoxy-5-(2-methyl-2H-tetrazol-5-yl)anilino]-1H-indazol-6-yl}spiro[cyclopropane-1,3′-indol]-2′(1′H)-one] had a negative-log IC50 (pIC50) of 6.40. The “[Aurora A IC50 (nM)]/[PLK4 IC50 (nM)]” value in assay [1] is on record as 1900.
In the assay on CHP134, `CCOc1cc(S(C)(=O)=O)ccc1Nc1n[nH]c2cc([C@@H]3C[C@@]34C(=O)N(C)c3ccc(OC)cc34)ccc12` [Example 23, (1R,2S)-2-{3-[2-ethoxy-4-(methanesulfonyl)anilino]-1H-indazol-6-yl}-5′-methoxy-1′-methylspiro[cyclopropane-1,3′-indol]-2′(1′H)-one] had a negative logarithm of the IC50 (pIC50) of 6.95. Further, the “[Aurora A IC50 (nM)]/[PLK4 IC50 (nM)]” value in assay [1] is given as 2258.3629.
For `COc1ccc2c(c1)[C@]1(C[C@H]1c1ccc3c(Nc4nc(-c5cnn(C)c5)cnc4OC)n[nH]c3c1)C(=O)N2` [Example 24, (1R,2S)-5′-methoxy-2-(3-{[3-methoxy-6-(1-methyl-1H-pyrazol-4-yl)pyrazin-2-yl]amino}-1H-indazol-6-yl)spiro[cyclopropane-1,3′-indol]-2′(1′H)-one], the pIC50 in the assay with CHP134 was 7.30. In addition, the “[Aurora A IC50 (nM)]/[PLK4 IC50 (nM)]” value in assay [1] is 842.4019.
The like results for `COc1ccc2c(c1)[C@]1(C[C@H]1c1ccc3c(Nc4cc(-c5cnn(C)c5)cnc4OC)n[nH]c3c1)C(=O)N2` [Example 26, (1R,2S)-5′-methoxy-2-(3-{[2-methoxy-5-(1-methyl-1H-pyrazol-4-yl)pyridin-3-yl]amino}-1H-indazol-6-yl)spiro[cyclopropane-1,3′-indol]-2′(1′H)-one] were, in that order, 6.77 and 992.1456.
The like results for `COc1ccc2c(c1)[C@]1(C[C@H]1c1ccc3c(Nc4cc(-c5cnn(C)c5)ncc4OC)n[nH]c3c1)C(=O)N2` [Example 27, (1R,2S)-5′-methoxy-2-(3-{[5-methoxy-2-(1-methyl-1H-pyrazol-4-yl)pyridin-4-yl]amino}-1H-indazol-6-yl)spiro[cyclopropane-1,3′-indol]-2′(1′H)-one] were, in that order, 6.33 and 360.5487.
`CCOc1ccc(-c2nccs2)nc1Nc1n[nH]c2cc([C@@H]3C[C@@]34C(=O)Nc3ccc(OC)cc34)ccc12` [Example 28, (1R,2S)-2-(3-{[3-ethoxy-6-(1,3-thiazol-2-yl)pyridin-2-yl]amino}-1H-indazol-6-yl)-5′-methoxyspiro[cyclopropane-1,3′-indol]-2′(1′H)-one]: the pIC50 in the assay on CHP134 was 7.78. Also, the “[Aurora A IC50 (nM)]/[PLK4 IC50 (nM)]” value in assay [1] is on record as 1135.
For the compound `CCOc1cc(-c2cn(C)cn2)ccc1Nc1n[nH]c2cc([C@@H]3C[C@@]34C(=O)Nc3ccc(OC)cc34)ccc12` [Example 29, (1R,2S)-2-{3-[2-ethoxy-4-(1-methyl-1H-imidazol-4-yl)anilino]-1H-indazol-6-yl}-5′-methoxyspiro[cyclopropane-1,3′-indol]-2′(1′H)-one], the pIC50 in the assay on CHP134 was 6.33. Besides, in assay [1], the “[Aurora A IC50 (nM)]/[PLK4 IC50 (nM)]” value was 15611.2532.
In the case of `COc1ccc2c(c1)[C@]1(C[C@H]1c1ccc3c(Nc4cc(-c5ccsn5)ccc4OC)n[nH]c3c1)C(=O)N2` [Example 30, (1R,2S)-5′-methoxy-2-{3-[2-methoxy-5-(1,2-thiazol-3-yl)anilino]-1H-indazol-6-yl}spiro[cyclopropane-1,3′-indol]-2′(1′H)-one], the pIC50 in the assay on CHP134 is 7.01. For the same compound, the “[Aurora A IC50 (nM)]/[PLK4 IC50 (nM)]” value in assay [1] was 916.8947.
In the assay with CHP134, `COc1ccc2c(c1)[C@]1(C[C@H]1c1ccc3c(Nc4nc(-c5cnn(C)c5)ncc4OC)n[nH]c3c1)C(=O)N2` [Example 31, (1R,2S)-5′-methoxy-2-(3-{[5-methoxy-2-(1-methyl-1H-pyrazol-4-yl)pyrimidin-4-yl]amino}-1H-indazol-6-yl)spiro[cyclopropane-1,3′-indol]-2′(1′H)-one] gave a negative-log IC50 (pIC50) of 6.87. In assay [1], the “[Aurora A IC50 (nM)]/[PLK4 IC50 (nM)]” value came out at 743.0555.
On to `COc1ccc2c(c1)[C@]1(C[C@H]1c1ccc3c(Nc4cc(-c5ccon5)ccc4OC)n[nH]c3c1)C(=O)N2` [Example 32, (1R,2S)-5′-methoxy-2-{3-[2-methoxy-5-(1,2-oxazol-3-yl)anilino]-1H-indazol-6-yl}spiro[cyclopropane-1,3′-indol]-2′(1′H)-one], for which the pIC50 in the assay on CHP134 is 6.97. Also, the “[Aurora A IC50 (nM)]/[PLK4 IC50 (nM)]” value in assay [1] is given as 325.6348.
The like results for `CCOc1ccc(-c2nccs2)cc1Nc1n[nH]c2cc([C@@H]3C[C@@]34C(=O)Nc3ccc(OC)cc34)ccc12` [Example 33, (1R,2S)-2-{3-[2-ethoxy-5-(1,3-thiazol-2-yl)anilino]-1H-indazol-6-yl}-5′-methoxyspiro[cyclopropane-1,3′-indol]-2′(1′H)-one] were, in that order, 7.38 and 1496.6799.
In the case of `CCOc1cnc(-c2nccs2)cc1Nc1n[nH]c2cc([C@@H]3C[C@@]34C(=O)Nc3ccc(OC)cc34)ccc12` [Example 34, (1R,2S)-2-(3-{[5-ethoxy-2-(1,3-thiazol-2-yl)pyridin-4-yl]amino}-1H-indazol-6-yl)-5′-methoxyspiro[cyclopropane-1,3′-indol]-2′(1′H)-one], the negative-log IC50 (pIC50) in the assay with CHP134 is 6.86. In assay [1], the “[Aurora A IC50 (nM)]/[PLK4 IC50 (nM)]” value was determined as 14827.5862.
As to `CCOc1ncc(-c2nccs2)nc1Nc1n[nH]c2cc([C@@H]3C[C@@]34C(=O)Nc3ccc(OC)cc34)ccc12` [Example 35, (1R,2S)-2-(3-{[3-ethoxy-6-(1,3-thiazol-2-yl)pyrazin-2-yl]amino}-1H-indazol-6-yl)-5′-methoxyspiro[cyclopropane-1,3′-indol]-2′(1′H)-one], the negative logarithm of the IC50 (pIC50) in the assay with CHP134 was 7.86. Moreover, in assay [1], the “[Aurora A IC50 (nM)]/[PLK4 IC50 (nM)]” value turned out to be 727.2189.
The like results for `CCOc1ccc(-c2cnn(C)c2)cc1Nc1n[nH]c2cc([C@@H]3C[C@@]34C(=O)Nc3ccc(OC)cc34)ccc12` [Example 37, (1R,2S)-2-{3-[2-ethoxy-5-(1-methyl-1H-pyrazol-4-yl)anilino]-1H-indazol-6-yl}-5′-methoxyspiro[cyclopropane-1,3′-indol]-2′(1′H)-one] were, in that order, 6.35 and 27839.6436.
As for `CCOc1cc(-n2cncn2)cnc1Nc1n[nH]c2cc([C@@H]3C[C@@]34C(=O)Nc3ccc(OC)cc34)ccc12` [Example 38, (1R,2S)-2-(3-{[3-ethoxy-5-(1H-1,2,4-triazol-1-yl)pyridin-2-yl]amino}-1H-indazol-6-yl)-5′-methoxyspiro[cyclopropane-1,3′-indol]-2′(1′H)-one], the pIC50 with CHP134 was 6.58. Besides, the “[Aurora A IC50 (nM)]/[PLK4 IC50 (nM)]” value in assay [1] worked out at 2756.5515.
